Laboratory results as given in patent US12714696B2, “Low dose fluralaner compositions for protection against parasitic invertebrate pest” (VIRBAC, priority 2019, dated 2026).
“And” between values parts separate entries of the source, which are not always exact repeats. Equal entries are not always repeated. Where two headings read alike, the source gives them in different places.

Assay: Pharmacokinetics after repeated oral administration of 35 μg/kg of fluralaner in dogs after feeding
Assay type: in vivo, beagle dogs
Settings: for concentration at 24 h / concentration at 48 h / concentration at 72 h / concentration at 96 h / concentration at 120 h / concentration at 240 h / concentration at 360 h / concentration at 480 h: po, 35 μg/kg
Description: The first objective of the study was to obtain the pharmacokinetic parameters after repeated oral administration of 35 μg/kg of fluralaner in dogs, 30 to 35 minutes after feeding.
The second objective was to investigate the pharmacodynamics between the fluralaner plasmatic dose and the effectiveness against fleas. • IVP: Investigational Veterinary Product, is pure Fluralaner+DMSO (35 μg/kg on Days 0 to 3 (0.35 mL/kg)) • Control product is DMSO (0.35 mL/kg on Days 0 to 3)
On Days 0, 1, 2 and 3, all dogs assigned to group 2 received the Investigational Veterinary Product. On Days 0 to 3 all dogs in group 1 received the control product at a volume equal to the dogs in group 2. Dogs assigned to group 1 received the control product and served as Placebo controls. The quantity of Investigational Veterinary Product and control product administered was calculated according to the dog's individual body weight measured on Day −1.
Blood samples were taken from all dogs prior to Investigational Veterinary Product treatment or control product administration on Day 0 and on Days 1 (+24 hours), 2 (+48 hours), 3 (+72 hours), 4 (+96 hours), 5 (+120 hours), 10 (+240 hours), 15 (+360 hours), 20 (+480 hours), 24 (+576 hours) and Day 28 (+672 hours).
On days of administration of pre-Investigational Veterinary Product or Control Product, dogs were fed (the same dog food) approximately half of their normal daily ration 30 minutes to 35 minutes prior to administration. Food consumed by the time of administration was calculated and recorded. The remainder of their normal daily ration was fed immediately after administration.
The PK parameters of fluralaner were calculated using a non-compartmental approach.
The following rules were applied for the calculation of the PK parameters: • All the plasma concentrations, validated by the bioanalytical laboratory, were used for the PK analysis. • The actual blood sampling times were used throughout. • Concentrations below the Limit of Quantification (LOQ) value were considered as zero from time zero (pre-dose) up to the time at which the first quantifiable concentration above the LOQ value was observed. Concentrations below the LOQ value between two quantifiable concentrations were considered as missing. Trailing concentrations below the LOQ value were not used in calculations.
Cmax the observed maximum concentration in plasma measured after dosing.
tmax the time at which Cmax was apparent.
λz the terminal rate constant (λz) was estimated by log-linear regression analysis on data points visually assessed, to be on the terminal log-linear phase. For the slope of the terminal elimination phase to be accepted as reliable, the following criteria were used: • the terminal data points were apparently randomly distributed about a single straight line (on visual inspection), • a minimum of three data points, including the last measured data point and excluding Cmax, were available for the regression.
t1/2 the terminal plasma half-life (t1/2) was calculated according to the following equation: […]
AUC0-t the area under the concentration-time curve from time zero (pre-dose) to the time of last quantifiable concentration (t) was calculated using a linear trapezoidal method.
[AUC0-∞=AUC0-t+(Ct/λz)], where Ct was the observed concentration of drug for the last sample on the PK profile in which the drug was detected, and λz was as defined above.
The extrapolated area under the curve, expressed as a percentage of the total area, AUCinf, was also calculated as: Area Extra (%)=(AUC0-∞−AUC0-t)/AUC0-∞*100%.

With `Cc1cc(C2=NOC(c3cc(Cl)cc(Cl)c3)(C(F)(F)F)C2)ccc1C(=O)NCC(=O)NCC(F)(F)F` (centres unmarked) [fluralaner, Fluralaner] the “fluralaner concentration levels, individual animal” value (from here on “fluralaner concentration levels”) (24 h, oral 35 μg/kg Days 0-3, dogs) was 16.5 ng/mL and 16.9 ng/mL (2×) and 18.1 ng/mL and 19.0 ng/mL, the “fluralaner concentration levels” value (48 h, oral 35 μg/kg Days 0-3, dogs) was 27.8 ng/mL and 32.2 ng/mL and 37.2 ng/mL and 35.2 ng/mL and 40.9 ng/mL and the “fluralaner concentration levels” value (72 h, oral 35 μg/kg Days 0-3, dogs) was 60.6 ng/mL and 47.9 ng/mL and 61.0 ng/mL and 42.0 ng/mL and 57.7 ng/mL. For the same compound, the “fluralaner concentration levels” value (96 h, oral 35 μg/kg Days 0-3, dogs) was 76.6 ng/mL and 91.6 ng/mL and 84.5 ng/mL and 71.8 ng/mL and 92.4 ng/mL, the “fluralaner concentration levels” value (120 h, oral 35 μg/kg Days 0-3, dogs) was 60.1 ng/mL and 63.6 ng/mL and 55.6 ng/mL and 62.9 ng/mL and 70.0 ng/mL and the “fluralaner concentration levels” value (240 h, oral 35 μg/kg Days 0-3, dogs) was 45.8 ng/mL and 34.1 ng/mL and 36.3 ng/mL and 51.6 ng/mL and 44.4 ng/mL. The “fluralaner concentration levels” value (360 h, oral 35 μg/kg Days 0-3, dogs) was 39.2 ng/mL and 39.6 ng/mL and 43.5 ng/mL and 37.4 ng/mL and 35.2 ng/mL, the “fluralaner concentration levels” value (480 h, oral 35 μg/kg Days 0-3, dogs) was 26.1 ng/mL and 17.1 ng/mL and 21.1 ng/mL and 26.6 ng/mL and 18.4 ng/mL and the “fluralaner concentration levels” value (576 h, oral 35 μg/kg Days 0-3, dogs) was 22.0 ng/mL and 14.7 ng/mL and 15.0 ng/mL and 22.2 ng/mL and 13.3 ng/mL. For the same compound, the “fluralaner concentration levels” value (672 h, oral 35 μg/kg Days 0-3, dogs) was 15.1 ng/mL and 9.1 ng/mL and 10.3 ng/mL and 16.0 ng/mL and 10.4 ng/mL, the steady state concentrations (after the fourth dose of 35 μg/kg per day oral) was “not reached” and the tmax (beagle, dog, plasma, 35 ug/kg, oral 35 μg/kg Days 0-3, dogs, read-out: Tmax, individual animal) was 96 h. For the same compound, the concentration at 24 h (beagle, dog, plasma, 24 h, oral 35 μg/kg Days 0-3, dogs, n=6, read-out: fluralaner concentration levels, GeoMean) was 17.3 ng/mL, the concentration at 24 h (beagle, dog, plasma, 24 h, oral 35 μg/kg Days 0-3, dogs, n=6, read-out: fluralaner concentration levels, Maximum) was 19 ng/mL and the concentration at 24 h (beagle, dog, plasma, 24 h, oral 35 μg/kg Days 0-3, dogs, n=6, read-out: fluralaner concentration levels, Mean) was 17.4 ng/mL. For the same compound, the concentration at 24 h (beagle, dog, plasma, 24 h, oral 35 μg/kg Days 0-3, dogs, n=6, read-out: fluralaner concentration levels, Median) was 16.9 ng/mL, the concentration at 24 h (beagle, dog, plasma, 24 h, oral 35 μg/kg Days 0-3, dogs, n=6, read-out: fluralaner concentration levels, Minimum) was 18.5 ng/mL and the concentration at 24 h (beagle, dog, plasma, 24 h, oral 35 μg/kg Days 0-3, dogs, read-out: fluralaner concentration levels, individual animal) was 16.7 ng/mL. The concentration at 48 h (beagle, dog, plasma, 48 h, oral 35 μg/kg Days 0-3, dogs, n=6, read-out: fluralaner concentration levels, GeoMean) was 32.8 ng/mL, the concentration at 48 h (beagle, dog, plasma, 48 h, oral 35 μg/kg Days 0-3, dogs, n=6, read-out: fluralaner concentration levels, Maximum) was 40.9 ng/mL and the concentration at 48 h (beagle, dog, plasma, 48 h, oral 35 μg/kg Days 0-3, dogs, n=6, read-out: fluralaner concentration levels, Mean) was 33.2 ng/mL. It also gave a concentration at 48 h (beagle, dog, plasma, 48 h, oral 35 μg/kg Days 0-3, dogs, n=6, read-out: fluralaner concentration levels, Median) of 33.7 ng/mL, a concentration at 48 h (beagle, dog, plasma, 48 h, oral 35 μg/kg Days 0-3, dogs, n=6, read-out: fluralaner concentration levels, Minimum) of 26.1 ng/mL and a concentration at 48 h (beagle, dog, plasma, 48 h, oral 35 μg/kg Days 0-3, dogs, read-out: fluralaner concentration levels, individual animal) of 26.1 ng/mL. It also gave a concentration at 72 h (beagle, dog, plasma, 72 h, oral 35 μg/kg Days 0-3, dogs, n=6, read-out: fluralaner concentration levels, GeoMean) of 51.7 ng/mL, a concentration at 72 h (beagle, dog, plasma, 72 h, oral 35 μg/kg Days 0-3, dogs, n=6, read-out: fluralaner concentration levels, Maximum) of 61 ng/mL and a concentration at 72 h (beagle, dog, plasma, 72 h, oral 35 μg/kg Days 0-3, dogs, n=6, read-out: fluralaner concentration levels, Mean) of 52.3 ng/mL. It also gave a concentration at 72 h (beagle, dog, plasma, 72 h, oral 35 μg/kg Days 0-3, dogs, n=6, read-out: fluralaner concentration levels, Median) of 52.8 ng/mL, a concentration at 72 h (beagle, dog, plasma, 72 h, oral 35 μg/kg Days 0-3, dogs, n=6, read-out: fluralaner concentration levels, Minimum) of 42 ng/mL and a concentration at 72 h (beagle, dog, plasma, 72 h, oral 35 μg/kg Days 0-3, dogs, read-out: fluralaner concentration levels, individual animal) of 44.6 ng/mL. It also gave a concentration at 96 h (beagle, dog, plasma, 96 h, oral 35 μg/kg Days 0-3, dogs, n=6, read-out: fluralaner concentration levels, GeoMean) of 84 ng/mL, a concentration at 96 h (beagle, dog, plasma, 96 h, oral 35 μg/kg Days 0-3, dogs, n=6, read-out: fluralaner concentration levels, Maximum) of 92.4 ng/mL and a concentration at 96 h (beagle, dog, plasma, 96 h, oral 35 μg/kg Days 0-3, dogs, n=6, read-out: fluralaner concentration levels, Mean) of 84.4 ng/mL. For the same compound, the concentration at 96 h (beagle, dog, plasma, 96 h, oral 35 μg/kg Days 0-3, dogs, n=6, read-out: fluralaner concentration levels, Median) was 87 ng/mL, the concentration at 96 h (beagle, dog, plasma, 96 h, oral 35 μg/kg Days 0-3, dogs, n=6, read-out: fluralaner concentration levels, Minimum) was 71.8 ng/mL and the concentration at 96 h (beagle, dog, plasma, 96 h, oral 35 μg/kg Days 0-3, dogs, read-out: fluralaner concentration levels, individual animal) was 89.4 ng/mL. It also gave a concentration at 120 h (beagle, dog, plasma, 120 h, oral 35 μg/kg Days 0-3, dogs, n=6, read-out: fluralaner concentration levels, GeoMean) of 63.8 ng/mL, a concentration at 120 h (beagle, dog, plasma, 120 h, oral 35 μg/kg Days 0-3, dogs, n=6, read-out: fluralaner concentration levels, Maximum) of 72.3 ng/mL and a concentration at 120 h (beagle, dog, plasma, 120 h, oral 35 μg/kg Days 0-3, dogs, n=6, read-out: fluralaner concentration levels, Mean) of 64.1 ng/mL. The concentration at 120 h (beagle, dog, plasma, 120 h, oral 35 μg/kg Days 0-3, dogs, n=6, read-out: fluralaner concentration levels, Median) was 63.2 ng/mL, the concentration at 120 h (beagle, dog, plasma, 120 h, oral 35 μg/kg Days 0-3, dogs, n=6, read-out: fluralaner concentration levels, Minimum) was 55.6 ng/mL and the concentration at 120 h (beagle, dog, plasma, 120 h, oral 35 μg/kg Days 0-3, dogs, read-out: fluralaner concentration levels, individual animal) was 72.3 ng/mL. For the same compound, the concentration at 240 h (beagle, dog, plasma, 240 h, oral 35 μg/kg Days 0-3, dogs, n=6, read-out: fluralaner concentration levels, GeoMean) was 43.9 ng/mL, the concentration at 240 h (beagle, dog, plasma, 240 h, oral 35 μg/kg Days 0-3, dogs, n=6, read-out: fluralaner concentration levels, Maximum) was 54.9 ng/mL and the concentration at 240 h (beagle, dog, plasma, 240 h, oral 35 μg/kg Days 0-3, dogs, n=6, read-out: fluralaner concentration levels, Mean) was 44.5 ng/mL. It also gave a concentration at 240 h (beagle, dog, plasma, 240 h, oral 35 μg/kg Days 0-3, dogs, n=6, read-out: fluralaner concentration levels, Median) of 45.1 ng/mL, a concentration at 240 h (beagle, dog, plasma, 240 h, oral 35 μg/kg Days 0-3, dogs, n=6, read-out: fluralaner concentration levels, Minimum) of 34.1 ng/mL and a concentration at 240 h (beagle, dog, plasma, 240 h, oral 35 μg/kg Days 0-3, dogs, read-out: fluralaner concentration levels, individual animal) of 54.9 ng/mL. The concentration at 360 h (beagle, dog, plasma, 360 h, oral 35 μg/kg Days 0-3, dogs, n=6, read-out: fluralaner concentration levels, GeoMean) was 39.5 ng/mL, the concentration at 360 h (beagle, dog, plasma, 360 h, oral 35 μg/kg Days 0-3, dogs, n=6, read-out: fluralaner concentration levels, Maximum) was 43.5 ng/mL and the concentration at 360 h (beagle, dog, plasma, 360 h, oral 35 μg/kg Days 0-3, dogs, n=6, read-out: fluralaner concentration levels, Mean) was 39.6 ng/mL. It also gave a concentration at 360 h (beagle, dog, plasma, 360 h, oral 35 μg/kg Days 0-3, dogs, n=6, read-out: fluralaner concentration levels, Median) of 39.4 ng/mL, a concentration at 360 h (beagle, dog, plasma, 360 h, oral 35 μg/kg Days 0-3, dogs, n=6, read-out: fluralaner concentration levels, Minimum) of 35.2 ng/mL and a concentration at 360 h (beagle, dog, plasma, 360 h, oral 35 μg/kg Days 0-3, dogs, read-out: fluralaner concentration levels, individual animal) of 42.8 ng/mL. For the same compound, the concentration at 480 h (beagle, dog, plasma, 480 h, oral 35 μg/kg Days 0-3, dogs, n=6, read-out: fluralaner concentration levels, GeoMean) was 22.1 ng/mL and the concentration at 480 h (beagle, dog, plasma, 480 h, oral 35 μg/kg Days 0-3, dogs, n=6, read-out: fluralaner concentration levels, Maximum) was 26.6 ng/mL.
